Experimental data from patent US20230114728A1 (Venatorx Pharmaceuticals, Inc., priority 2019, published 2023).
≈ marks a conversion by molar mass, not a printed value.

Tests used:
[1] = Bocillin-FL fluorescence polarization competition binding assay, A. baumannii PBP3; conditions: fluorescence polarization competition binding assay using Bocillin-FL; column 3; read-out: 4. baumannii PBP1a Potency
Procedure, shortened: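 Fluorescence polarization (ex 490/em 520 nm) competition of inhibitors against Bocillin-FL at 0.1 μM, read up to 60 min. Final PBP levels: E. coli PBP3 1.5 μM; A. baumannii PBP2 2.5 μM, PBP3 0.2 μM in Tris pH 8.0/NaCl/glycerol/Tween 20; N. gonorrhoeae PBP2 […] in Hepes pH 8.0/NaCl/glycerol. EC50 = concentration halving PBP-bound Bocillin-FL.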

N. gonorrhoeae WHO Q = assay: Liquid broth MIC in Fastidious broth; format: cell-based; conditions: Neisseria gonorrhoeae, read-out: Minimum Inhibitory Concentration, N. gonorrhoeae WHO Q
Procedure, shortened: (§1)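 Strains bearing mosaic PBP2 grown 24 h on chocolate agar (36° C, 5% CO2), suspended in saline and added to 2-fold compound dilutions in Fastidious broth at 5×10^5 CFU/mL. After ~24 hours at 36° C with 5% CO2, MIC taken visually as lowest well with <10% growth relative to full growth.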

N. gonorrhoeae WHO K = assay: Liquid broth MIC in Fastidious broth; format: cell-based; conditions: Neisseria gonorrhoeae, read-out: Minimum Inhibitory Concentration, N. gonorrhoeae WHO K
Procedure, shortened: as §1

N. gonorrhoeae WHO G = assay: Liquid broth MIC in Fastidious broth; format: cell-based; conditions: Neisseria gonorrhoeae; N. gonorrhoeae strain WHO G; Fastidious broth; read-out: Minimum Inhibitory Concentration, N. gonorrhoeae WHO G
Procedure, shortened: (§2)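 Colonies were swabbed from chocolate agar after 24 h growth and standardised by optical density at 600 nm. Compounds were serially diluted twofold in Fastidious broth, and bacteria added to give 5×10^5 CFU/mL. After about 24 h at 36 °C in 5% CO2, the lowest concentration allowing under 10% growth was taken as MIC.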

N. gonorrhoeae WHO L = assay: Liquid broth MIC in Fastidious broth; format: cell-based; conditions: Neisseria gonorrhoeae; N. gonorrhoeae strain WHO L; Fastidious broth; read-out: Minimum Inhibitory Concentration, N. gonorrhoeae WHO L
Procedure, shortened: as §2

N. gonorrhoeae FA1090 = assay: Liquid broth MIC in Fastidious broth; format: cell-based; conditions: Neisseria gonorrhoeae; N. gonorrhoeae strain FA1090; Fastidious broth; read-out: Minimum Inhibitory Concentration, N. gonorrhoeae FA1090
Procedure, shortened: as §2

N. gonorrhoeae WHO Z = assay: Liquid broth MIC in Fastidious broth; format: cell-based; conditions: Neisseria gonorrhoeae, read-out: Minimum Inhibitory Concentration, N. gonorrhoeae WHO Z
Procedure, shortened: as §1

N. gonorrhoeae H041 = assay: Liquid broth MIC in Fastidious broth; format: cell-based; conditions: Neisseria gonorrhoeae, H041, read-out: Minimum Inhibitory Concentration, N. gonorrhoeae H041
Procedure, shortened: as §1

[2] = system: N. gonorrhoeae ATCC 49226; assay: Liquid broth MIC in Fastidious broth; format: cell-based; conditions: Neisseria gonorrhoeae, ATCC49226; N. gonorrhoeae strain ATCC 49226; Fastidious broth; read-out: Minimum Inhibitory Concentration, N. gonorrhoeae ATCC 49226
Procedure, shortened: as §2

SMILES	EC50 [1] [µM]	MIC (N. gonorrhoeae WHO Q) [µg/mL]	MIC (N. gonorrhoeae WHO K) [µg/mL]	MIC (N. gonorrhoeae WHO G) [µg/mL]	MIC (N. gonorrhoeae WHO L) [µg/mL]	MIC (N. gonorrhoeae FA1090) [µg/mL]	MIC (N. gonorrhoeae WHO Z) [µg/mL]	MIC (N. gonorrhoeae H041) [µg/mL]	MIC [2] [µg/mL]
O=C(O)c1ccc(C(NC(=O)c2c(F)cc(O)c(O)c2Cl)C(=O)N[C@H]2Cc3ccc(F)c(C(=O)O)c3OB2O)cc1F (stereo partly drawn) [Example 71, (3R)-3-(2-(4-carboxy-3-fluorophenyl)-2-(2-chloro-6-fluoro-3,4-dihydroxybenzamido)acetamido)-7-fluoro-2-hydroxy-3,4-dihydro-2H-benzo[e][1,2]oxaborinine-8-carboxylic acid]	> 100	> 64	> 64	> 64	> 64	> 64	> 64	> 64	> 64
CC(C)(C)[C@@H](NC(=O)N1CCN(CCNC(=O)c2c(F)cc(O)c(O)c2Cl)C(=O)C1=O)C(=O)N[C@H]1Cc2ccc(F)c(C(=O)O)c2OB1O [Example 80, (R)-3-((R)-2-(4-(2-(2-chloro-6-fluoro-3,4-dihydroxybenzamido)ethyl)-2,3-dioxopiperazine-1-carboxamido)-3,3-dimethylbutanamido)-7-fluoro-2-hydroxy-3,4-dihydro-2H-benzo[e][1,2]oxaborinine-8-carboxylic acid]	< 10	> 64	> 64	16 to 32 (≈ 22.5 to 45.1 µM)	> 64	4 to 8 (≈ 5.63 to 11.3 µM)	> 64	> 64	16 to 32 (≈ 22.5 to 45.1 µM)
NCCN1CCN(C(=O)N[C@@H](C(=O)N[C@H]2Cc3cccc(C(=O)O)c3OB2O)c2ccc(C(=O)O)cc2)C(=O)C1=O (single isomer, unassigned) [Example 84]	30 to 100	16 to 32 (≈ 28.2 to 56.4 µM)	16 to 32 (≈ 28.2 to 56.4 µM)	1 to 2 (≈ 1.76 to 3.53 µM)	16 to 32 (≈ 28.2 to 56.4 µM)	1 to 2 (≈ 1.76 to 3.53 µM)	16 to 32 (≈ 28.2 to 56.4 µM)	> 64	4 to 8 (≈ 7.05 to 14.1 µM)
